# Results taken from the OligoGym collection.
# “And” between values parts separate entries of the source, which are not always exact repeats. Equal entries are not always repeated. These antisense oligonucleotides have a phosphorothioate backbone; sugars and methylation of C are not fully specified.
# Target: MAP2K1
# Settings: ASO
# Further: test concentration or dose not given here.
row,Sequence,remaining target (mRNA or protein) (fraction of control)
1,AACCAGAAGTCTACAGAT,0.69
2,AAGAGTAGAATCTTGGCA,0.9
3,AAGGATTTTCATACAATT,0.7
4,ACTAAGTATCCCACACAG,0.16
5,AGCAGCATGGGTTGGTGT,0.41
6,AGGAGGCCCAAAAGCGAC,0.65
7,AGGCCGATGGTGGAGCAG,0.14
8,AGTCACAGAGCTTGATCT,0.31
9,AGTCGATGAGCTGCCCGC,0.24
10,ATTAAGCATTTATTCACA,≥ 1
11,CAAAATCCACTTCCTCAG,0.28
12,CACCCAAACATCAGCTCC,0.41
13,CATCTGGAGGAGGGATGG,0.71
14,CATGAACCATGAGTTGCT,0.24
15,CCCAGCTCACTGATCTTC,0.89
16,CTACCCACATTCACCAAA,0.72
17,CTAGGATGTTGGAGGGCT,0.27
18,CTCTGTGCATGATCTTGT,0.51
19,CTCTTTGTTGCTTCCCAA,0.38
20,CTGACTGCACAGAGTAAT,0.2

row,Sequence,remaining target (mRNA or protein) (fraction of control)
1,GAAGGATCTCACAAGGCT,0.27
2,GAGTTCTACATGAAAAGC,0.66
3,GCAGTTTTGGAGGAGGCT,0.32
4,GCTTGTGGGAGACCTTGA,0.65
5,GGCCTTTTATTACAGCAA,0.5
6,GGCGTCGGCTTCTTCTTG,0.3
7,GTAATCCAACAACTCAAA,0.79
8,GTACGGAGAGTTGCACTC,0.25
9,GTTGGTCTCCGCAGAGCT,0.37
10,TAACGCGCTTCCAACTCC,0.3
11,TACAACAGCATTGGTACT,0.23
12,TACCAGAGACAGTCCCAT,0.24
13,TCTCAGCCGCATCTCCTT,0.13
14,TCTCGCTTCCTCCCTCGT,0.74
15,TCTGCTTCTGGGTAAGAA,≥ 1
16,TGAAGCCCCAGCTATCAT,0.41
17,TGCAGATACTGATCTCGC,0.29
18,TGGAGTCTTTCTGGCGAC,0.44
19,TTCCAGCTTTCTTCAGGA,0.58

# Target: PIK3CB
# Settings: ASO
row,Sequence,remaining target (mRNA or protein) (fraction of control)
1,AACATTTGGAGTGTCAACAT,≥ 1
2,AAGTTTTCAGGGATGGATGG,≥ 1
3,AATTGTGAACTTGCTTCCAT,0.74
4,ACCAGCCCTGACATGAACTT,0.45
5,ACTATGTCTGTCACCAATCC,0.52
6,ACTGGATATAAATCCCAGTG,≥ 1
7,AGGTATGGAGCCATCAGATG,≥ 1
8,AGTAGCCAGCACAGGACAGT,≥ 1
9,ATGAACAGCTACGATGAGCT,0.73
10,ATGCAAACATATAGGAGTCA,≥ 1
11,ATTAGTGGATGATCACCAAA,0.99
12,ATTCCCATGCCGTCGTAAAA,≥ 1
13,ATTGAGTGCTTCAACCTGCT,≥ 1
14,CACACAGTTCCGGATATACT,≥ 1
15,CACCGCCCAGATGTCAAGGA,0.5
16,CAGCGCAAAGAGAGTGATGA,≥ 1
17,CATATTAGGAGACACTTGAA,≥ 1
18,CCATAACATCTGCTTAATAT,≥ 1
19,CTGGAAGAAAAGGTCTGACA,≥ 1
20,CTTCCCATGAATAGTCAAAC,0.53
21,GAGGATAACACATGGGTTCA,≥ 1

# Target: PIK3CD
# Settings: ASO
row,Sequence,remaining target (mRNA or protein) (fraction of control)
1,AATGAGTGTCATCCCGCCCT,0.4 and 0.14
2,AATTCCCCAGAAAGTGGCCA,0.74 and 0.5
3,ACCAATGTGCTTGGTCCCCA,≥ 1 and 0.37
4,ACCCACTTGAAAAGTGGAGA,0.99 and 0.8
5,ACTACTGCCTGTTGTCTTTG,≥ 1 and 0.44
6,ACTGCCTGTTGTCTTTGGAC,0.74 and 0.44
7,AGACCCCTGTGGGCAGCAGG,0.78 and 0.46
8,AGCTGCCAGAACTCAGTCTA,0.53 and 0.48
9,AGTAGGCACCAGGTGACCGC,0.77 and 0.67
10,AGTCCACCCCAGGGGGCATC,≥ 1 and 0.45
11,ATGAAGGAGGCGTTTCCGTT,0.81 and 0.32
12,CAGCCGAGAGCCAGGTGCAG,≥ 1 and 0.59
13,CAGGGGGCATCCTGCGTTGT,0.85 and ≥ 1
14,CCACCCCAGGGGGCATCCTG,≥ 1 and 0.37
15,CCAGGGCTGGGAGGAGCCAC,0.91 and 0.69
16,CCCCAGGGGGCATCCTGCGT,0.81 and 0.96
17,CCCCGGTCTTAAGCTGGTCC,0.31 and 0.42
18,CCTCCTCTTGGGCCCAGGGC,≥ 1 and 0.71
19,CCTCGGGAGGAGAACAGTCT,≥ 1 and 0.45
20,CGGCCGCTCGTGCCGAATTC,0.96 and ≥ 1

row,Sequence,remaining target (mRNA or protein) (fraction of control)
1,CGGCTGCTCCAGGGACCACA,0.63 and 0.38
2,CGTTGCTCGTCCTCCAGCTC,0.47 and 0.27
3,CTGCGTTGTTACTTCCCAGA,≥ 1 and 0.41
4,CTGGGAGGAGCCACTACTGC,0.99 and 0.6
5,GATGACAGTTGTCCTCTCTG,0.84 and 0.46
6,GCATCCTGCGTTGTTACTTC,0.89 and 0.35
7,GCCACTACTGCCTGTTGTCT,0.59 and 0.3
8,GCGCAGCTGGCAGGGCTGGG,0.86 and ≥ 1
9,GCGGCACGTCCTTGGTGGAC,0.93 and 0.54
10,GGAAGCTGAAGTCTAGCAGC,0.84 and 0.56
11,GGACGGGCAGGAAGGGCTGC,≥ 1 and 0.87
12,GGAGCCACTACTGCCTGTTG,0.86 and 0.31
13,GGAGGAGCCACTACTGCCTG,0.98 and 0.55
14,GGCAGATTAAAGATGCTTTA,0.9 and 0.48
15,GGCAGTCCACCCCAGGGGGC,0.76 and 0.56
16,GGGCTGGGAGGAGCCACTAC,≥ 1
17,GGGGCATCCTGCGTTGTTAC,≥ 1
18,GTCGGTTCTTTCCCGTTAGG,0.52 and 0.35
19,TGGAATAGTCCAAGAAAGAC,≥ 1

# Target: SMAD3
# Settings: ASO
row,Sequence,remaining target (mRNA or protein) (fraction of control)
1,ACAGGCGGCAGTAGATGA,≥ 1
2,ACATTCGGGTCAACTGGT,0.48
3,AGAACTGGTGTCTCTACT,0.51
4,AGACCAAATGCCATCCCA,0.18
5,CCAAGTTATTATGTGCTG,≥ 1
6,CCATTTCTCCTCCTGCCC,0.62
7,CCCCTACCATACTTGATG,0.38
8,CCCCTCCGATGTAGTAGA,0.54
9,CCTCCCCATCCCAAGTCT,0.59
10,CCTGTTGACATTGGAGAG,0.72
11,CGATGTAGTAGAGCCGCA,0.42
12,CTCCCCAGCCTTTGACGA,0.54
13,CTCTCTGGTAGTGGTAGG,0.8
14,CTCTGGGTTTGCTCGTGT,0.56
15,CTTCCGATGTGTCTCCGT,0.39
16,GAACACGCACCTCCCAAT,0.4
17,GAACTCCTGGTTGTTGAA,≥ 1
18,GAGGCACTCTGCGAAGAC,0.49
19,GCCCTGGTTGACCGACTG,0.83
20,GCCTTCTCGCACCATTTC,0.92

row,Sequence,remaining target (mRNA or protein) (fraction of control)
1,GCGAGGCGTGGAATGTCT,0.54
2,GCGCTGGTTACAGTTGGG,≥ 1
3,GCGTGGCACCAACACAGG,≥ 1
4,GGAGGGCGTGCGGGCGGC,≥ 1
5,GGCTGTAGTCGTCCAGTG,0.65
6,GGGAAGTTAGTGTTTTCG,≥ 1
7,GGGTCGGTGAAGCCATCC,≥ 1
8,GGTAGGGATTCACGCAGA,0.92
9,GTGCGGGCGGCGAGGAGC,0.86
10,TCTGGTGGTCACTGGTTT,0.64
11,TCTTCTTCCTTGACAACA,0.92
12,TCTTGAGTTTCTTGACCA,≥ 1
13,TGCAGGTCCAAGTTATTA,0.81
14,TGCATCGTGCGGGCTCTT,0.43
15,TGCCCGTTCTGCTCGCCC,0.63
16,TGCTCGCCCTTCTTCCAG,0.61
17,TGGGTTGAGTAGAGTTCC,0.53
18,TTAAGCCACCAGAGCAGA,≥ 1
19,TTCTTCCAGCCCAGCAGG,≥ 1
